The text below walks through data of ChEMBL document CHEMBL1201862, “PubChem BioAssay data set” (2004).

Among the test systems are IGROV-1; SF-539; MOLT-4; HCT-15; M14; SR; HCT-116; ACHN; HOP-92; SNB-19; OVCAR-5; HOP-62; CCRF-CEM; TK-10; SF-268; NCI-H460; NCI-H226; EKVX.
What all share (experiment): NCI-60 cell line screen, 48 h

Each structure is given as a SMILES string.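 Five concentrations, 48 hours, 96-well plates. Here, GI50 denotes the concentration required for 50% inhibition of growth.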 Calls of active or inactive are those of the source. No stated cut-off is given here; in the data, active = GI50 up to about 1.1 µM and inactive = higher. A value given as a limit tells only on which side of the number the result lay.

Consider `S=c1sc2sc(=S)sc2s1`, for which the GI50 in the assay on IGROV-1 is > 100 µM (inactive); with SF-539 it was 23.9 µM (inactive); in the assay on MOLT-4 it was 28.8 µM (inactive); in the assay on HCT-15, 26.1 µM; with M14, 21.1 µM (inactive); in the assay with SR, 29.1 µM (inactive). Further, the GI50 in the assay with HCT-116 was 30.1 µM (inactive); in the assay on ACHN it was > 100 µM (inactive); with HOP-92 it was 57.9 µM (inactive); in the assay with SNB-19 it was > 100 µM (inactive); in the assay on OVCAR-5, 20.9 µM (inactive); in the assay with HOP-62 it was > 100 µM (inactive). For the same molecule, the GI50 was 6.08 µM (inactive) in the assay with CCRF-CEM, > 100 µM (inactive) in the assay with TK-10, 43.1 µM (inactive) in the assay with SF-268 and 22.4 µM (inactive) with NCI-H460.

In the case of `NCC1(N2CCOCC2)C2CCCC21CNc1ccccc1` (stereo not drawn), the GI50 with IGROV-1 was > 100 µM (inactive); in the assay on SF-539, > 100 µM (inactive); with MOLT-4, 92.3 µM (inactive); in the assay on M14, > 100 µM (inactive); with SR, > 100 µM (inactive); with HCT-116, > 100 µM (inactive). Moreover, the GI50 in the assay with ACHN is > 100 µM (inactive); in the assay on HOP-92 it was 41.9 µM (inactive); with SNB-19, > 100 µM (inactive); in the assay on OVCAR-5 it was > 100 µM (inactive); in the assay with HOP-62 it was > 100 µM (inactive); with CCRF-CEM, > 100 µM (inactive). The GI50 in the assay with TK-10, in the assay with SF-268 and in the assay with NCI-H460 was > 100 µM (inactive) throughout.

As for `CSC1=Nc2ccccc2N=C(c2ccc(Cl)cc2)C1`, the GI50 was 22.8 µM (inactive) in the assay with IGROV-1; 40 µM (inactive) in the assay with SF-539; 21.7 µM (inactive) in the assay with MOLT-4; 26.9 µM in the assay on HCT-15; 36.1 µM (inactive) in the assay with M14; 32.1 µM (inactive) in the assay on SR. Moreover, the GI50 is 26.5 µM (inactive) with HCT-116; 36.6 µM (inactive) in the assay on ACHN; > 100 µM (inactive) in the assay with NCI-H226; 20.5 µM (inactive) in the assay with EKVX; > 100 µM (inactive) in the assay with SNB-19; 27.8 µM (inactive) in the assay with OVCAR-5. The GI50 in the assay on HOP-62 is > 100 µM (inactive); in the assay with CCRF-CEM it was 27.9 µM (inactive); in the assay with SF-268, 42.3 µM (inactive); in the assay on NCI-H460, 40.2 µM (inactive).

On to `CC1=NN(C(=O)CC(=O)Nc2ccccc2F)C(=O)C1/N=N/c1ccccc1[N+](=O)[O-]` (stereo not drawn), for which the GI50 with IGROV-1 was > 100 µM (inactive); with SF-539, 58.7 µM (inactive); in the assay with MOLT-4, 73.8 µM (inactive); in the assay on HCT-15, greater than 100 µM; with M14, > 100 µM (inactive); in the assay with HCT-116, > 100 µM (inactive). Besides, the GI50 is > 100 µM (inactive) in the assay on NCI-H226; 26.5 µM (inactive) with EKVX; > 100 µM (inactive) with SNB-19; > 100 µM (inactive) in the assay with OVCAR-5; > 100 µM (inactive) in the assay on HOP-62; 79.6 µM (inactive) in the assay on CCRF-CEM. Further, the GI50 in the assay with TK-10 and in the assay with SF-268 was > 100 µM (inactive) throughout.

Regarding `C=C1CN2CCc3c([nH]c4ccccc34)C2CC1CC(=O)N(C)C` (stereo not drawn), the GI50 was > 309 µM (inactive) in the assay on IGROV-1; > 309 µM (inactive) in the assay with SF-539; > 309 µM (inactive) in the assay on MOLT-4; greater than 309 µM in the assay on HCT-15; > 309 µM (inactive) in the assay with SR; > 309 µM (inactive) in the assay with HCT-116. The GI50 in the assay with ACHN was > 309 µM (inactive); in the assay on HOP-92, 126 µM (inactive); in the assay on NCI-H226, > 309 µM (inactive); in the assay with EKVX it was > 309 µM (inactive); in the assay on SNB-19 it was > 309 µM (inactive); with HOP-62 it was > 309 µM (inactive). Further, the GI50 with CCRF-CEM, in the assay on TK-10, in the assay on SF-268 and with NCI-H460 was > 309 µM (inactive) throughout.

Consider `COC1=C(OC)CCC(/C(C#N)=C/c2ccc(OC)c(OC)c2)=C1`, for which the GI50 is 56.4 µM (inactive) in the assay with IGROV-1; 59.3 µM (inactive) in the assay on SF-539; > 100 µM (inactive) in the assay on MOLT-4; greater than 100 µM with HCT-15; > 100 µM (inactive) in the assay with M14; 66.7 µM (inactive) in the assay on SR. For the same molecule, the GI50 in the assay on HCT-116 was > 100 µM (inactive); in the assay with ACHN it was > 100 µM (inactive); in the assay with HOP-92 it was 49.8 µM (inactive); in the assay on NCI-H226, > 100 µM (inactive); in the assay on OVCAR-5 it was > 100 µM (inactive); with HOP-62 it was 31.1 µM (inactive). In addition, the GI50 was > 100 µM (inactive) in the assay on CCRF-CEM, 34.2 µM (inactive) with TK-10, 37.2 µM (inactive) in the assay with SF-268 and > 100 µM (inactive) in the assay with NCI-H460.

Turning to `CN(C)/C(=N/C(=O)Nc1ccccc1)SCc1ccccc1`, the GI50 in the assay on IGROV-1 is > 100 µM (inactive); with SF-539 it was > 100 µM (inactive); in the assay with MOLT-4 it was 73.3 µM (inactive); with HCT-15, greater than 100 µM; with M14, > 100 µM (inactive); with ACHN, > 100 µM (inactive). Besides, the GI50 in the assay on NCI-H226, in the assay with EKVX, in the assay on SNB-19, in the assay on OVCAR-5, with HOP-62 and with CCRF-CEM was > 100 µM (inactive) throughout. In addition, the GI50 with TK-10 and in the assay on SF-268 was > 100 µM (inactive) throughout.

`O=C(O)CC12C3C4C5C3C1C5C42` (stereo not drawn): the GI50 in the assay with IGROV-1 is > 100 µM (inactive); in the assay with SF-539, > 100 µM (inactive); in the assay on MOLT-4, > 100 µM (inactive); with HCT-15, greater than 100 µM; with M14 it was > 100 µM (inactive); in the assay on HCT-116, > 100 µM (inactive). Moreover, the GI50 in the assay on ACHN, with EKVX, in the assay on SNB-19, in the assay with OVCAR-5, in the assay with HOP-62 and in the assay with CCRF-CEM was > 100 µM (inactive) each time. Besides, the GI50 in the assay on TK-10, in the assay on SF-268 and with NCI-H460 was > 100 µM (inactive) in each case.

Consider `CC1(Cl)C(=O)NC(=O)N(C2CC(N=[N+]=[N-])C(CO)O2)C1N=[N+]=[N-]` (stereo not drawn), for which the GI50 is > 100 µM (inactive) in the assay with IGROV-1; > 100 µM (inactive) in the assay with SF-539; > 100 µM (inactive) in the assay with MOLT-4; greater than 100 µM in the assay with HCT-15; > 100 µM (inactive) in the assay on M14; > 100 µM (inactive) in the assay on ACHN. Further, the GI50 in the assay on HOP-92, in the assay on EKVX, in the assay with SNB-19, in the assay with OVCAR-5, in the assay on HOP-62 and in the assay on CCRF-CEM was > 100 µM (inactive) in each case. The GI50 in the assay on TK-10, in the assay on SF-268 and in the assay on NCI-H460 was > 100 µM (inactive) in each case.

For `CC(=O)/C(=C\c1ccco1)C(=O)Nc1ccccc1`, the GI50 was > 100 µM (inactive) in the assay with IGROV-1; > 100 µM (inactive) with SF-539; > 100 µM (inactive) with MOLT-4; greater than 100 µM with HCT-15; > 100 µM (inactive) with M14; > 100 µM (inactive) in the assay on SR. Besides, the GI50 with HCT-116, in the assay on ACHN, in the assay on HOP-92, in the assay with EKVX, in the assay on SNB-19 and in the assay on HOP-62 was > 100 µM (inactive) throughout. Also, the GI50 in the assay with CCRF-CEM, in the assay on TK-10, with SF-268 and with NCI-H460 was > 100 µM (inactive) throughout.

As to `O=C/C1=C/C2=Cc3ccccc3C=C(/C=C(/C=O)C1)C2`, the GI50 in the assay with IGROV-1 is > 100 µM (inactive); in the assay on SF-539 it was 46.6 µM (inactive); in the assay on MOLT-4, 15.8 µM (inactive); with HCT-15, 31.4 µM; in the assay on M14, 43.4 µM (inactive); in the assay on HCT-116, 19.4 µM (inactive). In addition, the GI50 in the assay with ACHN is > 100 µM (inactive); in the assay on HOP-92, 27.7 µM (inactive); in the assay on NCI-H226, 43.2 µM (inactive); in the assay with EKVX, > 100 µM (inactive); in the assay on SNB-19 it was 44.9 µM (inactive); in the assay with OVCAR-5 it was > 100 µM (inactive). Further, the GI50 in the assay on HOP-62 was 74.8 µM (inactive); in the assay on CCRF-CEM, 16.2 µM (inactive); in the assay with TK-10, > 100 µM (inactive); in the assay on SF-268, 38.1 µM (inactive); with NCI-H460, 81.1 µM (inactive).

Take `CCN(CC)c1c(C)nnn1C1OC(COC(C)=O)C(OC(C)=O)C(OC(C)=O)C1OC(C)=O` (stereo not drawn): the GI50 in the assay on IGROV-1 was > 100 µM (inactive); in the assay on SF-539, > 100 µM (inactive); in the assay on MOLT-4, > 100 µM (inactive); in the assay on HCT-15, 38.6 µM; in the assay with M14 it was > 100 µM (inactive); in the assay on HCT-116, > 100 µM (inactive). Further, the GI50 in the assay with ACHN was > 100 µM (inactive); in the assay with HOP-92, 70.8 µM (inactive); in the assay with NCI-H226, > 100 µM (inactive); in the assay with EKVX, > 100 µM (inactive); in the assay on SNB-19, > 100 µM (inactive); in the assay with OVCAR-5 it was > 100 µM (inactive). In addition, the GI50 in the assay on HOP-62, with CCRF-CEM, in the assay on TK-10, with SF-268 and with NCI-H460 was > 100 µM (inactive) in each case.

Take `O=C1OC(c2ccccc2)=N/C1=C/N1CCCC1C(=O)O` (stereo not drawn): the GI50 with IGROV-1 is > 100 µM (inactive); in the assay on SF-539, > 100 µM (inactive); with HCT-15, greater than 100 µM; with M14 it was > 100 µM (inactive); with HCT-116, > 100 µM (inactive); in the assay on ACHN, > 100 µM (inactive). Moreover, the GI50 in the assay on HOP-92, in the assay with NCI-H226, in the assay with EKVX, in the assay on SNB-19, with OVCAR-5 and with HOP-62 was > 100 µM (inactive) in each case. Further, the GI50 in the assay on CCRF-CEM, in the assay with TK-10, in the assay with SF-268 and with NCI-H460 was > 100 µM (inactive) throughout.
